{"source": "patent US20050112573A1", "about": "“Method of detecting toxic substance” (priority 2001, published 2005)", "system": "yeast genes (level of expressed mRNA)", "test": "DNA chip analysis of expressed mRNA of yeast genes after 2 h culture with a toxic chemical substance", "format": "cell-based, Saccharomyces cerevisiae S288C", "method_in_brief": "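Values are treated-to-control fluorescence ratios from a whole-yeast-genome DNA chip (65° C, over 12 h hybridization) using Cy3/Cy5-labelled cDNA from mRNA. Log-phase S288C cells in YPD at 25° C were exposed 2 h to a toxicant at sublethal, growth-inhibiting concentration.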", "data": [{"substance": "manganese ethylenebis(dithiocarbamate) [(8)]", "values": [{"measurement": "The level of expressed mRNA in the presence of chemical substance/", "setting": "yeast gene YAL053W, ratio to control without chemical", "value": 0.8}, {"measurement": "The level of expressed mRNA in the presence of chemical substance/The level of expressed mRNA in the absence of chemical substance", "setting": "yeast gene YAR010C", "value": 1.3}, {"measurement": "The level of expressed mRNA in the presence of chemical substance/The level of expressed mRNA in the absence of chemical substance", "setting": "yeast gene YBL005W-A", "value": 1.0}, {"measurement": "The level of expressed mRNA in the presence of chemical substance/The level of expressed mRNA in the absence of chemical substance", "setting": "yeast gene YBL041W", "value": 1.7}, {"measurement": "The level of expressed mRNA in the presence of chemical substance/The level of expressed mRNA in the absence of chemical substance", "setting": "yeast gene YBL043W", "value": 2.1}, {"measurement": "The level of expressed mRNA in the presence of chemical substance/", "setting": "yeast gene YBL048W, ratio to control without chemical substance, 2 h culture", "value": 1.2}, {"measurement": "The level of expressed mRNA in the presence of chemical substance/The level of expressed mRNA in the absence of chemical substance", "setting": "yeast gene YBL078C", "value": 1.6}, {"measurement": "The level of expressed mRNA in the presence of chemical substance/", "setting": "yeast gene YBL107C, ratio to control without chemical substance, 2 h culture", "value": 1.9}, {"measurement": "The level of expressed mRNA in the presence of chemical substance/in the absence of chemical substance", "setting": "yeast gene YBR036C", "value": 0.7}, {"measurement": "The level of expressed mRNA in the presence of chemical substance/The level of expressed mRNA in the absence of chemical substance", "setting": "yeast gene YBR214W", "value": 0.7}, {"measurement": "The level of expressed mRNA in the presence of chemical substance/in the absence of chemical substance", "setting": "yeast gene YBR298C", "value": 0.5}, {"measurement": "The level of expressed mRNA in the presence of chemical substance/The level of expressed mRNA in the absence of chemical substance", "setting": "yeast gene YCL020W", "value": 1.7}, {"measurement": "The level of expressed mRNA in the presence of chemical substance/The level of expressed mRNA in the absence of chemical substance", "setting": "yeast gene YCL027W", "value": 0.6}, {"measurement": "The level of expressed mRNA in the presence of chemical substance/The level of expressed mRNA in the absence of chemical substance", "setting": "yeast gene YCR004C", "value": 1.2}, {"measurement": "The level of expressed mRNA in the presence of chemical substance/The level of expressed mRNA in the absence of chemical substance", "setting": "yeast gene YCR071C", "value": 0.9}, {"measurement": "The level of expressed mRNA in the presence of chemical substance/The level of expressed mRNA in the absence of chemical substance", "setting": "yeast gene YCR088W", "value": 0.5}, {"measurement": "The level of expressed mRNA in the presence of chemical substance/The level of expressed mRNA in the absence of chemical substance", "setting": "yeast gene YDL008W", "value": 1.2}, {"measurement": "The level of expressed mRNA in the presence of chemical substance/", "setting": "yeast gene YDL072C, ratio to control without chemical", "value": 0.8}, {"measurement": "The level of expressed mRNA in the presence of chemical substance/in the absence of chemical substance", "setting": "yeast gene YDL078C", "value": 1.0}, {"measurement": "The level of expressed mRNA in the presence of chemical substance/", "setting": "yeast gene YDL204W, ratio to control without chemical", "value": 1.1}, {"measurement": "The level of expressed mRNA in the presence of chemical substance/in the absence of chemical substance", "setting": "yeast gene YDL215C", "value": 1.1}, {"measurement": "The level of expressed mRNA in the presence of chemical substance/", "setting": "yeast gene YDL222C, ratio to control without chemical", "value": 0.7}, {"measurement": "The level of expressed mRNA in the presence of chemical substance/The level of expressed mRNA in the absence of chemical substance", "setting": "yeast gene YDL238C", "value": 5.8}, {"measurement": "The level of expressed mRNA in the presence of chemical substance/The level of expressed mRNA in the absence of chemical substance", "setting": "yeast gene YDR055W", "value": 1.6}, {"measurement": "The level of expressed mRNA in the presence of chemical substance/The level of expressed mRNA in the absence of chemical substance", "setting": "yeast gene YDR084C", "value": 0.7}, {"measurement": "The level of expressed mRNA in the presence of chemical substance/The level of expressed mRNA in the absence of chemical substance", "setting": "yeast gene YDR085C", "value": 2.0}, {"measurement": "The level of expressed mRNA in the presence of chemical substance/The level of expressed mRNA in the absence of chemical substance", "setting": "yeast gene YDR104C", "value": 1.3}, {"measurement": "The level of expressed mRNA in the presence of chemical substance/The level of expressed mRNA in the absence of chemical substance", "setting": "yeast gene YDR115W", "value": 1.3}, {"measurement": "The level of expressed mRNA in the presence of chemical substance/The level of expressed mRNA in the absence of chemical substance", "setting": "yeast gene YDR259C", "value": 1.4}, {"measurement": "The level of expressed mRNA in the presence of chemical substance/in the absence of chemical substance", "setting": "yeast gene YDR297W", "value": 1.5}, {"measurement": "The level of expressed mRNA in the presence of chemical substance/The level of expressed mRNA in the absence of chemical substance", "setting": "yeast gene YDR315C", "value": 1.4}, {"measurement": "The level of expressed mRNA in the presence of chemical substance/", "setting": "yeast gene YDR330W, ratio to control without chemical substance, 2 h culture", "value": 1.1}, {"measurement": "The level of expressed mRNA in the presence of chemical substance/The level of expressed mRNA in the absence of chemical substance", "setting": "yeast gene YDR358W", "value": 1.2}, {"measurement": "The level of expressed mRNA in the presence of chemical substance/in the absence of chemical substance", "setting": "yeast gene YDR387C", "value": 0.7}, {"measurement": "The level of expressed mRNA in the presence of chemical substance/The level of expressed mRNA in the absence of chemical substance", "setting": "yeast gene YDR388W", "value": 0.8}, {"measurement": "The level of expressed mRNA in the presence of chemical substance/", "setting": "yeast gene YDR411C, ratio to control without chemical substance, 2 h culture", "value": 0.9}, {"measurement": "The level of expressed mRNA in the presence of chemical substance/The level of expressed mRNA in the absence of chemical substance", "setting": "yeast gene YDR432W", "value": 0.5}, {"measurement": "The level of expressed mRNA in the presence of chemical substance/The level of expressed mRNA in the absence of chemical substance", "setting": "yeast gene YDR481C", "value": 1.0}, {"measurement": "The level of expressed mRNA in the presence of chemical substance/The level of expressed mRNA in the absence of chemical substance", "setting": "yeast gene YDR510W", "value": 1.5}, {"measurement": "The level of expressed mRNA in the presence of chemical substance/", "setting": "yeast gene YDR511W, ratio to control without chemical substance, 2 h culture", "value": 1.7}, {"measurement": "The level of expressed mRNA in the presence of chemical substance/", "setting": "yeast gene YDR545W, ratio to control without chemical substance, 2 h culture", "value": 0.6}, {"measurement": "The level of expressed mRNA in the presence of chemical substance/", "setting": "yeast gene YEL001C, ratio to control without chemical", "value": 1.2}, {"measurement": "The level of expressed mRNA in the presence of chemical substance/The level of expressed mRNA in the absence of chemical substance", "setting": "yeast gene YEL042W", "value": 0.7}, {"measurement": "The level of expressed mRNA in the presence of chemical substance/The level of expressed mRNA in the absence of chemical substance", "setting": "yeast gene YEL066W", "value": 1.4}, {"measurement": "The level of expressed mRNA in the presence of chemical substance/", "setting": "yeast gene YER004W, ratio to control without chemical substance, 2 h culture", "value": 1.1}, {"measurement": "The level of expressed mRNA in the presence of chemical substance/", "setting": "yeast gene YER035W, ratio to control without chemical substance, 2 h culture", "value": 1.2}, {"measurement": "The level of expressed mRNA in the presence of chemical substance/The level of expressed mRNA in the absence of chemical substance", "setting": "yeast gene YER039C", "value": 0.7}, {"measurement": "The level of expressed mRNA in the presence of chemical substance/", "setting": "yeast gene YER079W, ratio to control without chemical substance, 2 h culture", "value": 1.4}, {"measurement": "The level of expressed mRNA in the presence of chemical substance/", "setting": "yeast gene YER106W, ratio to control without chemical", "value": 1.2}, {"measurement": "The level of expressed mRNA in the presence of chemical substance/The level of expressed mRNA in the absence of chemical substance", "setting": "yeast gene YER107C", "value": 0.8}, {"measurement": "The level of expressed mRNA in the presence of chemical substance/The level of expressed mRNA in the absence of chemical substance", "setting": "yeast gene YER130C", "value": 1.2}, {"measurement": "The level of expressed mRNA in the presence of chemical substance/", "setting": "yeast gene YER158C, ratio to control without chemical substance, 2 h culture", "value": 0.9}, {"measurement": "The level of expressed mRNA in the presence of chemical substance/", "setting": "yeast gene YER163C, ratio to control without chemical substance, 2 h culture", "value": 1.4}, {"measurement": "The level of expressed mRNA in the presence of chemical substance/", "setting": "yeast gene YER175C, ratio to control without chemical substance, 2 h culture", "value": 1.1}, {"measurement": "The level of expressed mRNA in the presence of chemical substance/", "setting": "yeast gene YFL006W, ratio to control without chemical substance, 2 h culture", "value": 1.0}]}]}
